# Test system: M. catarrhalis A894
# Experiment: Minimal inhibitory concentration (MIC), microdilution method in cation-adjusted Mueller-Hinton Broth (CLSI M7-A7)
# Format: cell-based
# Settings: strain A894; for MIC: Moraxella catarrhalis
# Procedure: Minimal inhibitory concentrations (MICs; mg/1) were determined in cation-adjusted Mueller-Hinton Broth by a microdilution method following the description given in “Methods for Dilution Antimicrobial Susceptibility Tests for Bacteria that Grow Aerobically”, Approved standard, 7th ed., Clinical and Laboratory Standards Institute (CLSI) Document M7-A7, Wayne, Pa., USA, 2006.
Compound,MIC,MIC for M. catarrhalis A894
"O=C1CSc2ccc(N3C[C@@H](CCCN(CCO)C4Cn5c(=O)ccc6ccc(F)c4c65)OC3=O)cc2N1 (mixture of isomers) [Example 93, (RS)-9-fluoro-1-((2-hydroxy-ethyl)-{3-[(R)-2-oxo-3-(3-oxo-3,4-dihydro-2H-benzo[1,4]thiazin-6-yl)-oxazolidin-5-yl]-propyl}-amino)-1,2-dihydro-pyrrolo[3,2,1-ij]quinolin-4-one]",≤ 0.031 mg/L,–
"O=C1CSc2ccc(N3C[C@@H](CCCNC4Cn5c(=O)ccc6ccc(Br)c4c65)OC3=O)cc2N1 (mixture of isomers) [Example 116, (RS)-9-bromo-1-{3-[(R)-2-oxo-3-(3-oxo-3,4-dihydro-2H-benzo[1,4]thiazin-6-yl)-oxazolidin-5-yl]-propylamino}-1,2-dihydro-pyrrolo[3,2,1-ij]quinolin-4-one]",≤ 0.031 mg/L,–
"O=C1CSc2ccc(N3C[C@@H](CCNCC4Cn5c(=O)ccc6ncc(F)c4c65)OC3=O)cc2N1 (mixture of isomers) [Example 28, (4RS)-3-fluoro-4-({2-[(R)-2-oxo-3-(3-oxo-3,4-dihydro-2H-benzo[1,4]thiazin-6-yl)-oxazolidin-5-yl]-ethylamino}-methyl)-4,5-dihydro-pyrrolo[3,2,1-de][1,5]naphthyridin-7-one]",≤ 0.031 mg/L,–
"O=C1CSc2ccc(N3C[C@@H](CCCNCC4Cn5c(=O)ccc6ccc(F)c4c65)OC3=O)cc2N1 (mixture of isomers) [Example 51, (RS)-9-fluoro-1-({3-[(R)-2-oxo-3-(3-oxo-3,4-dihydro-2H-benzo[1,4]thiazin-6-yl)-oxazolidin-5-yl]-propylamino}-methyl)-1,2-dihydro-pyrrolo[3,2,1-ij]quinolin-4-one]",≤ 0.031 mg/L,–
"O=C1COc2ccc(N3C[C@@H](CCCNC4Cn5c(=O)ccc6ccc(F)c4c65)OC3=O)nc2N1 (mixture of isomers) [Example 70, (RS)-9-fluoro-1-{3-[(R)-2-oxo-3-(3-oxo-3,4-dihydro-2H-pyrido[3,2-b][1,4]oxazin-6-yl)-oxazolidin-5-yl]-propylamino}-1,2-dihydro-pyrrolo[3,2,1-ij]quinolin-4-one]",≤ 0.031 mg/L,–
"O=C1COc2ccc(N3C[C@@H](CCCN[C@@H]4Cn5c(=O)ccc6ncc(F)c4c65)OC3=O)cc2N1 [Example 146, (S)-3-fluoro-4-{3-[(R)-2-oxo-3-(3-oxo-3,4-dihydro-2H-benzo[1,4]oxazin-6-yl)-oxazolidin-5-yl]-propylamino}-4,5-dihydro-pyrrolo[3,2,1-de][1,5]naphthyridin-7-one]",≤ 0.031 mg/L,–
"O=C1COc2ccc(N3C[C@H](CCNCC4Cn5c(=O)ccc6ccc(F)c4c65)OC3=O)cc2N1 (mixture of isomers) [Example 1, (1RS)-9-fluoro-1-({2-[(S)-2-oxo-3-(3-oxo-3,4-dihydro-2H-benzo[1,4]oxazin-6-yl)-oxazolidin-5-yl]-ethylamino}-methyl)-1,2-dihydro-pyrrolo[3,2,1-ij]quinolin-4-one]",≤ 0.031 mg/L,–
"O=C1COc2ccc(N3C[C@@H](CCCN[C@H]4Cn5c(=O)cnc6cccc4c65)OC3=O)nc2N1 [Example 75, (R)-6-{3-[(R)-2-oxo-3-(3-oxo-3,4-dihydro-2H-pyrido[3,2-b][1,4]oxazin-6-yl)-oxazolidin-5-yl]-propylamino}-5,6-dihydro-pyrrolo[1,2,3-de]quinoxalin-3-one]",≤ 0.031 mg/L,–
"Cc1ccc(N2C[C@@H](CNCCC3Cn4c(=O)ccc5ccc(F)c3c54)OC2=O)cc1F (mixture of isomers) [Example 11, (1RS)-9-fluoro-1-(2-{[(R)-3-(3-fluoro-4-methyl-phenyl)-2-oxo-oxazolidin-5-ylmethyl]-amino}-ethyl)-1,2-dihydro-pyrrolo[3,2,1-ij]quinolin-4-one]",0.063 mg/L,–
"O=C1CSc2ccc(N3C[C@H](CCNC[C@H]4Cn5c(=O)ccc6ccc(F)c4c65)OC3=O)cc2N1 [Example 49, (S)-9-fluoro-1-({2-[(S)-2-oxo-3-(3-oxo-3,4-dihydro-2H-benzo[1,4]thiazin-6-yl)-oxazolidin-5-yl]-ethylamino}-methyl)-1,2-dihydro-pyrrolo[3,2,1-ij]quinolin-4-one]",≤ 0.031 mg/L,–
"O=C1CSc2ccc(N3C[C@@H](CCNCC4CN5C(=O)CCc6ccc(F)c4c65)OC3=O)cc2N1 (mixture of isomers) [Example 23, (1RS)-9-fluoro-1-({2-[(R)-2-oxo-3-(3-oxo-3,4-dihydro-2H-benzo[1,4]thiazin-6-yl)-oxazolidin-5-yl]-ethylamino}-methyl)-1,2,5,6-tetrahydro-pyrrolo[3,2,1-ij]quinolin-4-one]",≤ 0.031 mg/L,–
"O=C1COc2ccc(N3C[C@@H](CCCN[C@H]4Cn5c(=O)cnc6cccc4c65)OC3=O)cc2N1 [Example 65, (R)-6-{3-[(R)-2-oxo-3-(3-oxo-3,4-dihydro-2H-benzo[1,4]oxazin-6-yl)-oxazolidin-5-yl]-propylamino}-5,6-dihydro-pyrrolo[1,2,3-de]quinoxalin-3-one]",≤ 0.031 mg/L,–
"O=C1COc2ccc(N3C[C@@H](CCCNC4Cn5c(=O)ccc6ccc(F)c4c65)OC3=O)cc2N1 (mixture of isomers) [Example 12, (1RS)-9-fluoro-1-{3-[(R)-2-oxo-3-(3-oxo-3,4-dihydro-2H-benzo[1,4]oxazin-6-yl)-oxazolidin-5-yl]-propylamino}-1,2-dihydro-pyrrolo[3,2,1-ij]quinolin-4-one]",≤ 0.031 mg/L,–
"O=C1CSc2ccc(N3C[C@H](CCCN[C@H]4Cn5c(=O)ccc6ncc(F)c4c65)OC3=O)nc2N1 [Example 143, (R)-3-fluoro-4-{3-[(S)-2-oxo-3-(3-oxo-3,4-dihydro-2H-pyrido[3,2-b][1,4]thiazin-6-yl)-oxazolidin-5-yl]-propylamino}-4,5-dihydro-pyrrolo[3,2,1-de][1,5]naphthyridin-7-one]",≤ 0.031 mg/L,–
"O=C1CSc2ccc(N3C[C@H](CCNCC4Cn5c(=O)cnc6cccc4c65)OC3=O)cc2N1 (mixture of isomers) [Example 56, (RS)-6-({2-[(S)-2-oxo-3-(3-oxo-3,4-dihydro-2H-benzo[1,4]thiazin-6-yl)-oxazolidin-5-yl]-ethylamino}-methyl)-5,6-dihydro-pyrrolo[1,2,3-de]quinoxalin-3-one]",≤ 0.031 mg/L,–
"O=C1CSc2ccc(N3C[C@@H](CCCN[C@H]4Cn5c(=O)ccc6ncc(F)c4c65)OC3=O)cc2N1 [Example 138, (R)-3-fluoro-4-{3-[(R)-2-oxo-3-(3-oxo-3,4-dihydro-2H-benzo[1,4]thiazin-6-yl)-oxazolidin-5-yl]-propylamino}-4,5-dihydro-pyrrolo[3,2,1-de][1,5]naphthyridin-7-one]",≤ 0.031 mg/L,–
"O=C1CSc2ccc(N3C[C@@H](CCCNC4Cn5c(=O)ccc6ccc(Cl)c4c65)OC3=O)nc2N1 (mixture of isomers) [Example 177, (RS)-9-chloro-1-{3-[(R)-2-oxo-3-(3-oxo-3,4-dihydro-2H-pyrido[3,2-b][1,4]thiazin-6-yl)-oxazolidin-5-yl]-propylamino}-1,2-dihydro-pyrrolo[3,2,1-ij]quinolin-4-one]",≤ 0.031 mg/L,–
"O=C1CSc2ccc(N3C[C@@H](CCNCC4Cn5c(=O)cnc6cccc4c65)OC3=O)cc2N1 (mixture of isomers) [Example 156, (RS)-6-({2-[(R)-2-oxo-3-(3-oxo-3,4-dihydro-2H-benzo[1,4]thiazin-6-yl)-oxazolidin-5-yl]-ethylamino}-methyl)-5,6-dihydro-pyrrolo[1,2,3-de]quinoxalin-3-one]",≤ 0.031 mg/L,–
"(RS)-1-({[(R)-3-(4-ethoxy-phenyl)-2-oxo-oxazolidin-5-ylmethyl]-amino}-methyl)-9-fluoro-1,2-dihydro-pyrrolo[3,2,1-ij]quinolin-4-one [Example 36]",–,8 mg/L
"O=C1COc2ccc(N3C[C@H](CCCNC4Cn5c(=O)ccc6ccc(F)c4c65)OC3=O)nc2N1 (mixture of isomers) [Example 124, (RS)-9-fluoro-1-{3-[(S)-2-oxo-3-(3-oxo-3,4-dihydro-2H-pyrido[3,2-b][1,4]oxazin-6-yl)-oxazolidin-5-yl]-propylamino}-1,2-dihydro-pyrrolo[3,2,1-ij]quinolin-4-one]",≤ 0.031 mg/L,–
"O=C1COc2ccc(N3C[C@@H](CNCC4Cn5c(=O)ccc6cccc4c65)OC3=O)cc2N1 (mixture of isomers) [Example 82, (RS)-1-({[(R)-2-oxo-3-(3-oxo-3,4-dihydro-2H-benzo[1,4]oxazin-6-yl)-oxazolidin-5-ylmethyl]-amino}-methyl)-1,2-dihydro-pyrrolo[3,2,1-ij]quinolin-4-one]",0.25 mg/L,–
"O=C1COc2ccc(N3C[C@@H](CNCC4Cn5c(=O)ccc6ccc(F)c4c65)OC3=O)cc2N1 (mixture of isomers) [Example 32, (1RS)-9-fluoro-1-({[(R)-2-oxo-3-(3-oxo-3,4-dihydro-2H-benzo[1,4]oxazin-6-yl)-oxazolidin-5-ylmethyl]-amino}-methyl)-1,2-dihydro-pyrrolo[3,2,1-ij]quinolin-4-one]",0.031 mg/L,–
"O=C1CSc2ccc(N3C[C@H](CCN[C@@H]4Cn5c(=O)cnc6cccc4c65)OC3=O)cc2N1 [Example 55, (S)-6-{2-[(S)-2-oxo-3-(3-oxo-3,4-dihydro-2H-benzo[1,4]thiazin-6-yl)-oxazolidin-5-yl]-ethylamino}-5,6-dihydro-pyrrolo[1,2,3-de]quinoxalin-3-one]",≤ 0.031 mg/L,–
"O=C1CSc2ccc(N3C[C@@H](CCN[C@H]4Cn5c(=O)ccc6cccc4c65)OC3=O)cc2N1 [Example 158, (R)-1-{2-[(R)-2-oxo-3-(3-oxo-3,4-dihydro-2H-benzo[1,4]thiazin-6-yl)-oxazolidin-5-yl]-ethylamino}-1,2-dihydro-pyrrolo[3,2,1-ij]quinolin-4-one]",≤ 0.031 mg/L,–
"O=C1CSc2ccc(N3C[C@H](CCCNC4Cn5c(=O)ccc6ncc(F)c4c65)OC3=O)cc2N1 (mixture of isomers) [Example 96, (RS)-3-fluoro-4-{3-[(S)-2-oxo-3-(3-oxo-3,4-dihydro-2H-benzo[1,4]thiazin-6-yl)-oxazolidin-5-yl]-propylamino}-4,5-dihydro-pyrrolo[3,2,1-de][1,5]naphthyridin-7-one]",≤ 0.031 mg/L,–

# — patent US9822114B2, “Tricyclic oxazolidinone antibiotic compounds” (Idorsia Pharmaceuticals Ltd, priority 2008, dated 2017)
